Among the data in patent US11040026B2, “Muscarinic M1 receptor positive allosteric modulators” (SUVEN LIFE SCIENCES LIMITED, priority 2016, dated 2021) are EC50 values, retold here.

In the assay the target is T1, muscarinic M1 receptor (Homo sapiens, UniProt P11229).
T1 sequence (P11229 1-460): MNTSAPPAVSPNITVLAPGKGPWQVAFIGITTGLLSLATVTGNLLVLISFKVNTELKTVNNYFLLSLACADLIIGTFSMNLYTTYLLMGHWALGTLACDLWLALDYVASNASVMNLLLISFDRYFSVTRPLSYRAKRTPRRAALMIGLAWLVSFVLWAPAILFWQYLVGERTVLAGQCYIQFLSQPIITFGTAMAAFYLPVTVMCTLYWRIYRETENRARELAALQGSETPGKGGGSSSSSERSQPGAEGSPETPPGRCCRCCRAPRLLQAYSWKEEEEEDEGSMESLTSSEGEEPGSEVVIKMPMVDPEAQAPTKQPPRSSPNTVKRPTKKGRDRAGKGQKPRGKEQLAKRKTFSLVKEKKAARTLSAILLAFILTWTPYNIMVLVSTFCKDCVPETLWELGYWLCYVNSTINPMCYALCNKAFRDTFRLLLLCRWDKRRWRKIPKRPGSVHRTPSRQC
As to the kind of experiment: Allosteric potency EC50 for muscarinic M1 receptor (CHO pCRE-Luc reporter assay). Format: cell-based. As to conditions: in presence of EC20 of acetylcholine; CHO cells, luciferase reporter, 4 hours. How it is done: Determination of Allosteric Potency EC50 Values for Muscarinic M1 Receptor:
A stable CHO cell line expressing recombinant human Muscarinic M1 receptor and pCRE-Luc reporter system was used for cell-based assay. The assay offers a non-radioactive based approach to determine binding of a compound to GPCRs. In this specific assay, the level of intracellular cyclic AMP which is modulated by activation or inhibition of the receptor is measured. The recombinant cells harbor luciferase reporter gene under the control of cyclic AMP response element.
The above cells were grown in 96 well clear bottom white plates in Hams F12 medium containing 10% fetal bovine serum (FBS). Prior to the addition of compounds or standard agonist, cells were serum starved overnight. Increasing concentrations of test compounds were added along with EC20 of acetylcholine in OptiMEM medium to the cells. The incubation was continued at 37° C. in CO2 incubator for 4 hours. Medium was removed and cells were washed with phosphate buffered saline. The cells were lysed and luciferase activity was measured in a Luminometer. Luminescence units were plotted against the compound concentrations using Graphpad software. EC50 values of the compounds were defined as the concentration required in stimulating the luciferase activity by 50% in presence of EC20 of acetylcholine and the results are provided in table 1.
For orientation: Reporter assays use an easily measured gene product as a stand-in for the process of interest.
A word on the EC50: it is the concentration that produces a half-maximal response. As for `CN1CCc2c(Cc3ccc(F)cc3)cc(C(=O)N[C@H]3CCCC[C@@H]3O)nc21` [Example 76, N-[(1S,2S)-2-Hydroxycyclohexyl]-4-(4-fluorobenzyl)-1-methyl-2,3-dihydro-1H-pyrrolo[2,3-b]pyridine-6-carboxamide], the EC50 is 380 nM.

Regarding `Cn1ccc2c(Cc3ccnc(F)c3)cc(C(=O)NC3CCOCC3O)nc21` (single isomer, unassigned) [Example 45, Racemic cis-N-(3-Hydroxytetrahydropyran-4-yl)-4-(2-fluoropyridin-4-ylmethyl)-1-methyl-1H-pyrrolo[2,3-b]pyridine-6-carboxamide], the EC50 was 3150 nM.

With `Cc1ccc(Cc2cc(C(=O)N[C@H]3CCCC[C@@H]3O)nc3c2ccn3C)cn1` [Example 9, N-[(1S,2S)-2-Hydroxycyclohexyl]-4-(2-methylpyridin-5-ylmethyl)-1-methyl-1H-pyrrolo[2,3-b]pyridine-6-carboxamide], the EC50 worked out at 1570 nM.

`Cn1ccc2c(Cc3ccc(-c4cscn4)cc3)cc(C(=O)NCC3(O)CCCC3)nc21` [Example 26, N-(1-Hydroxycyclopentylmethyl)-4-[4-(thiazol-4-yl)benzyl]-1-methyl-1H-pyrrolo[2,3-b]pyridine-6-carboxamide]: the EC50 was 221 nM.

Take `Cn1cc(-c2ccc(Cc3cc(C(=O)NC4CCOCC4O)nc4c3ccn4C)cc2)cn1` (racemic) [Example 56, Racemic trans-N-(3-Hydroxytetrahydropyran-4-yl)-4-[4-(1-methyl-1H-pyrazol-4-yl)benzyl]-1-methyl-1H-pyrrolo[2,3-b]pyridine-6-carboxamide]: the EC50 turned out to be 38 nM.

With `Cn1ccc2c(Cc3ccc(Cl)nc3)cc(C(=O)N[C@H]3CCOC[C@H]3O)nc21` (single isomer, unassigned; isomer-ii) [Example 50, cis-N-(3-Hydroxytetrahydropyran-4-yl)-4-(2-chloropyridin-5-ylmethyl)-1-methyl-1H-pyrrolo[2,3-b]pyridine-6-carboxamide (Isomer-II)], the EC50 came to 2920 nM.

As to `Cn1ccc2c(Cc3cccc(F)c3F)cc(C(=O)N[C@@H]3CCOC[C@H]3O)nc21` (single isomer, unassigned; isomer-i) [Example 43, trans-N-(3-Hydroxytetrahydropyran-4-yl)-4-(2,3-difluorobenzyl)-1-methyl-1H-pyrrolo[2,3-b]pyridine-6-carboxamide (Isomer-I)], the EC50 is 2530 nM.

On to `Cn1ccc2c(Cc3ccc(-c4cscn4)cc3)cc(C(=O)NC3CCOCC3O)nc21` (racemic) [Example 53, Racemic trans-N-(3-Hydroxytetrahydropyran-4-yl)-4-[4-(thiazol-4-yl)benzyl]-1-methyl-1H-pyrrolo[2,3-b]pyridine-6-carboxamide], for which the EC50 turned out to be 31 nM.

For the compound `COc1ccc(Cc2cc(C(=O)N[C@H]3CCCC[C@@H]3O)nc3c2ccn3C)cn1` [Example 2, N-[(1S,2S)-2-Hydroxycyclohexyl]-4-(2-methoxypyridin-5-ylmethyl)-1-methyl-1H-pyrrolo[2,3-b]pyridine-6-carboxamide], the EC50 is 1080 nM.

As for `Cn1ccc2c(Cc3ccc(F)c(F)c3)cc(C(=O)N[C@@H]3CCOC[C@H]3O)nc21` (single isomer, unassigned; isomer-i) [Example 51, trans-N-(3-Hydroxytetrahydropyran-4-yl)-4-(3,4-difluorobenzyl)-1-methyl-1H-pyrrolo[2,3-b]pyridine-6-carboxamide (Isomer-I)], the 50% effective concentration (EC50) came to 1820 nM.

As to `Cn1ccc2c(Cc3cccc(F)c3F)cc(C(=O)N[C@H]3CCCC[C@@H]3O)nc21` [Example 16, N-[(1S,2S)-2-Hydroxycyclohexyl]-4-(2,3-difluorobenzyl)-1-methyl-1H-pyrrolo[2,3-b]pyridine-6-carboxamide], the EC50 is 1290 nM.

On to `Cn1ccc2c(Cc3ccc(F)cc3)cc(C(=O)N[C@@H]3CCOC[C@@H]3O)nc21` (racemic) [Example 35, Racemic cis-N-(3-Hydroxytetrahydropyran-4-yl)-4-(4-fluorobenzyl)-1-methyl-H-pyrrolo[2,3-b]pyridine-6-carboxamide], for which the EC50 was 1470 nM.

For `Cn1ccc2c(Cc3ccc(-n4cccn4)cc3)cc(C(=O)N[C@H]3CCCC[C@@H]3O)nc21` [Example 6, N-[(1S,2S)-2-Hydroxycyclohexyl]-4-(4-pyrazol-1-ylbenzyl)-1-methyl-1H-pyrrolo[2,3-b]pyridine-6-carboxamide], the EC50 stood at 15 nM.

With `Cn1ccc2c(Cc3ccc(-c4cscn4)cc3)cc(C(=O)N[C@H]3CCCC[C@@H]3O)nc21` [Example 5, N-[(1S,2S)-2-Hydroxycyclohexyl]-4-(4-thiazol-4-ylbenzyl)-1-methyl-1H-pyrrolo[2,3-b]pyridine-6-carboxamide], the EC50 was 130 nM.

On to `Cn1ccc2c(Cc3cccc(F)c3)cc(C(=O)N[C@H]3CCCC[C@@H]3O)nc21` [Example 25, N-[(1S,2S)-2-Hydroxycyclohexyl]-4-(3-fluorobenzyl)-1-methyl-1H-pyrrolo[2,3-b]pyridine-6-carboxamide], for which the EC50 amounted to 362 nM.

In the case of `Cn1ccc2c(Cc3cccc(F)c3F)cc(C(=O)N[C@@H]3CCOC[C@H]3O)nc21` (single isomer, unassigned; isomer-ii) [Example 44, trans-N-(3-Hydroxytetrahydropyran-4-yl)-4-(2,3-difluorobenzyl)-1-methyl-1H-pyrrolo[2,3-b]pyridine-6-carboxamide (Isomer-II)], the EC50 was found to be 748 nM.

Turning to `Cn1ccc2c(Cc3ccc(-c4cscn4)cc3)cc(C(=O)N[C@@H]3CCOC[C@H]3O)nc21` (single isomer, unassigned; isomer-ii) [Example 55, trans-N-(3-Hydroxytetrahydropyran-4-yl)-4-[4-(thiazol-4-yl)benzyl]-1-methyl-1H-pyrrolo[2,3-b]pyridine-6-carboxamide (Isomer-II)], the EC50 was 32 nM.

`Cn1ccc2c(Cc3ccc(F)cc3)cc(C(=O)N[C@H]3CCCC[C@@H]3O)nc21` [Example 4, N-[(1S,2S)-2-Hydroxycyclohexyl]-4-(4-fluorobenzyl)-1-methyl-1H-pyrrolo[2,3-b]pyridine-6-carboxamide]: the EC50 is 811 nM.

With `Cn1ccc2c(Cc3ccc(F)c(F)c3)cc(C(=O)N[C@H]3CCOC[C@H]3O)nc21` (single isomer, unassigned; isomer-ii) [Example 42, cis-N-(3-Hydroxytetrahydropyran-4-yl)-4-(3,4-difluorobenzyl)-1-methyl-1H-pyrrolo[2,3-b]pyridine-6-carboxamide (Isomer-II)], the EC50 is 2290 nM.

Regarding `Cn1ccc2c(Cc3ccncc3)cc(C(=O)N[C@H]3CCCC[C@@H]3O)nc21` [Example 14, N-[(1S,2S)-2-Hydroxycyclohexyl]-4-(pyridin-4-ylmethyl)-1-methyl-1H-pyrrolo[2,3-b]pyridine-6-carboxamide], the EC50 was 891 nM.

For `COc1ccc(Cc2cc(C(=O)N[C@H]3CCCC[C@@H]3O)nc3c2OCCO3)cc1` [Example 104, N-[(1S,2S)-2-Hydroxycyclohexyl]-8-(4-methoxybenzyl)-2,3-dihydro-[1,4]dioxino[2,3-b]pyridine-6-carboxamide], the EC50 is 231 nM.

As to `Cc1ncccc1-c1ccc(Cc2cc(C(=O)N[C@H]3CCCC[C@@H]3O)nc3c2ccn3C)cc1` [Example 21, N-[(1S,2S)-2-Hydroxycyclohexyl]-4-[4-(2-methylpyridin-3-yl)benzyl]-1-methyl-1H-pyrrolo[2,3-b]pyridine-6-carboxamide], the half-maximal effective concentration (EC50) stood at 1050 nM.
